How the values were obtained:
Assay in all cases: relative viability (nuclei count vs DMSO), 5 days (fraction); higher = more cells survive
[1] = compound: C[C@@H](N)c1ccc(C(=O)Nc2ccnc3[nH]ccc23)cc1 + COc1cccc2cc(-c3nc([C@H]4CC[C@H](C(=O)O)CC4)n4ncnc(N)c34)[nH]c12 [OSI-027] (partner 0.5 µM)
Procedure, shortened: (§1)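 Five library-drug doses in √10 steps were combined with a fixed anchor-drug dose, or a single drug was given alone, by pin tool to lung cancer cell lines in 1536-well plates the day after seeding. Nuclei were stained and counted after 5 days. Relative viability is the nuclei count in treated wells over that in vehicle wells, taken as the median of duplicate plates.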

Tanzisertib + Foretinib = compound: O[C@H]1CC[C@H](Nc2ncc3nc(Nc4c(F)cc(F)cc4F)n([C@H]4CCOC4)c3n2)CC1 [Tanzisertib] + COc1cc2c(Oc3ccc(NC(=O)C4(C(=O)Nc5ccc(F)cc5)CC4)cc3F)ccnc2cc1OCCCN1CCOCC1 [Foretinib] (partner 0.25 µM)
Procedure, shortened: as §1

Tanzisertib + Pictilisib = compound: O[C@H]1CC[C@H](Nc2ncc3nc(Nc4c(F)cc(F)cc4F)n([C@H]4CCOC4)c3n2)CC1 [Tanzisertib] + CS(=O)(=O)N1CCN(Cc2cc3nc(-c4cccc5[nH]ncc45)nc(N4CCOCC4)c3s2)CC1 [Pictilisib] (partner 1 µM)
Procedure, shortened: as §1

[2] = compound: O[C@H]1CC[C@H](Nc2ncc3nc(Nc4c(F)cc(F)cc4F)n([C@H]4CCOC4)c3n2)CC1 [Tanzisertib] + CC(=O)c1c(C)c2cnc(Nc3ccc(N4CCNCC4)cn3)nc2n(C2CCCC2)c1=O [Palbociclib] (partner 0.5 µM)
Procedure, shortened: as §1

| Cell Line | relative viability ([1]; first compound 0.1265 µM) | relative viability ([1]; first compound 0.4 µM) | relative viability ([1]; first compound 1.265 µM) | relative viability ([1]; first compound 4 µM) | relative viability (Tanzisertib + Foretinib; first compound 0.08 µM) | relative viability (Tanzisertib + Foretinib; first compound 0.253 µM) | relative viability (Tanzisertib + Foretinib; first compound 0.8 µM) | relative viability (Tanzisertib + Foretinib; first compound 2.53 µM) | relative viability (Tanzisertib + Foretinib; first compound 8 µM) | relative viability (Tanzisertib + Pictilisib; first compound 0.08 µM) | relative viability (Tanzisertib + Pictilisib; first compound 0.253 µM) | relative viability (Tanzisertib + Pictilisib; first compound 0.8 µM) | relative viability (Tanzisertib + Pictilisib; first compound 2.53 µM) | relative viability (Tanzisertib + Pictilisib; first compound 8 µM) | relative viability ([2]; first compound 0.08 µM) | relative viability ([2]; first compound 0.253 µM) | relative viability ([2]; first compound 0.8 µM) | relative viability ([2]; first compound 2.53 µM) | relative viability ([2]; first compound 8 µM) | relative viability ([1]; first compound 0.04 µM) |
| --- | --- | --- | --- | --- | --- | --- | --- | --- | --- | --- | --- | --- | --- | --- | --- | --- | --- | --- | --- | --- |
| LU99A | 0.328 | 0.292 | 0.277 | 0.316 | 0.828 | 0.81 | 0.798 | 0.765 | 0.837 | 0.322 | 0.303 | 0.319 | 0.358 | 0.321 | 0.405 | 0.377 | 0.378 | 0.399 | 0.389 |  |
| LXF-289 | 0.821 | 0.986 | 0.709 | 0.763 | 1.02 | 1.01 | 1.06 | 0.989 | 1.03 | 0.887 | 0.745 | 0.459 | 0.735 | 0.804 | 0.596 | 0.592 | 0.647 | 0.574 | 0.65 | 0.639 |
| NCI-H23 | 0.577 | 0.592 |  | 0.674 | 1.01 | 1.07 | 0.996 | 0.952 | 1.02 | 0.488 | 0.483 | 0.459 | 0.499 | 0.365 | 0.479 | 0.53 | 0.512 | 0.493 | 0.514 | 0.603 |
| NCI-H322M | 0.586 | 0.63 |  | 0.706 | 1.02 | 0.962 | 0.886 | 0.961 | 0.97 | 0.506 | 0.648 | 0.591 | 0.494 | 0.459 | 0.475 | 0.459 | 0.475 | 0.472 | 0.534 | 0.656 |
| NCI-H358 | 1.07 | 0.855 | 0.794 | 0.701 | 0.774 | 0.589 | 0.694 | 0.73 | 0.442 | 0.393 | 0.389 | 0.331 | 0.293 | 0.332 | 0.129 | 0.134 | 0.127 | 0.127 | 0.148 | 0.816 |
| NCI-H441 | 0.807 | 0.62 |  | 0.701 | 0.488 | 0.797 | 1.03 | 0.994 | 0.752 | 0.494 | 0.529 | 0.525 | 0.476 | 0.463 | 0.236 | 0.224 | 0.241 | 0.194 | 0.154 | 0.631 |
| NCI-H460 | 0.602 | 0.746 | 0.633 | 0.897 | 1.05 | 1.03 | 0.884 | 1.07 | 1.01 | 0.495 | 0.368 | 0.362 | 0.317 | 0.0876 | 0.199 | 0.193 | 0.113 | 0.161 | 0.13 | 0.748 |
| NCI-H520 | 0.333 | 0.329 | 0.334 | 0.335 | 0.792 | 0.734 | 0.83 | 0.753 | 0.757 | 0.372 | 0.322 | 0.29 | 0.287 | 0.297 | 0.274 | 0.201 | 0.227 | 0.227 | 0.239 | 0.287 |
| NCI-H647 | 0.611 | 0.586 | 0.574 | 0.501 | 1.23 | 1.25 | 1.11 | 1.29 | 1.12 | 0.456 | 0.537 | 0.474 | 0.436 | 0.141 | 0.364 | 0.506 | 0.381 | 0.427 | 0.439 | 0.597 |
| NCI-H650 | 0.508 | 0.503 | 0.488 | 0.421 | 0.979 | 1.07 | 1.04 | 1.09 | 1.08 | 0.843 | 0.825 | 0.858 | 0.957 | 0.963 | 0.341 | 0.342 | 0.302 | 0.33 | 0.325 |  |
| NCI-H661 | 0.682 | 0.636 | 0.593 | 0.552 | 1.07 | 0.999 | 1 | 1.04 | 0.995 | 0.464 | 0.389 | 0.365 | 0.447 | 0.35 | 0.424 | 0.406 | 0.423 | 0.386 | 0.415 | 0.754 |
| NCI-H727 | 0.68 | 0.719 | 0.676 | 0.852 | 0.88 | 1.02 | 0.662 | 0.936 | 0.91 | 0.356 | 0.463 | 0.363 | 0.333 | 0.307 | 0.74 | 0.673 | 0.614 | 0.676 | 0.626 | 0.832 |
| NCI-H838 | 0.45 | 0.413 | 0.339 | 0.253 | 1.1 | 1.01 | 1.11 | 1.02 | 0.937 | 0.564 | 0.424 | 0.493 | 0.536 | 0.493 | 0.233 | 0.225 | 0.219 | 0.228 | 0.198 | 0.395 |
| NCI-H1355 | 0.415 | 0.432 | 0.343 | 0.379 | 1.03 | 0.961 | 0.965 | 1.04 | 0.948 | 0.455 | 0.417 | 0.46 | 0.461 | 0.306 | 0.435 | 0.398 | 0.4 | 0.438 | 0.382 | 0.459 |
| NCI-H1395 | 0.739 | 0.685 | 0.389 | 0.588 | 1.06 | 0.941 | 0.96 | 0.945 | 0.966 | 0.592 | 0.735 | 0.568 | 0.589 | 0.533 | 0.71 | 0.574 | 0.607 | 0.618 | 0.632 | 0.637 |
| NCI-H1437 | 0.838 | 0.853 | 1 | 0.919 | 1.26 | 1.31 | 1.32 | 1.42 | 1.29 | 0.445 | 0.492 | 0.452 | 0.486 | 0.565 | 0.333 | 0.291 | 0.315 | 0.32 | 0.262 | 0.947 |
